Consider 85 compounds from PubChem BioAssay AID1259418 (Broad Institute, 2018).

“And” between values parts separate entries of the source, which are not always exact repeats. Equal entries are not always repeated. Inconclusive results are not listed. The source made the active and inactive calls.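 Rule for the calls: active = fitted half-maximal concentration of signal decrease at or below twice the sample's top tested concentration; inconclusive = flat curve between -70 and -30 percent, or poor fit; inactive = flat within 30 percent, signal rise, or potency above limit.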

The assay concerns the target T. gondii ME49Luc in IFN-y HeLa, luciferase, 72 h. The assay can be described thus: inhibitors of Toxoplasma growth in IFN-γ-primed HeLa – cell-based, ME49Luc, luciferase, 72 h, dose response (AID 1259418).
Turning to `O=C(NC1CCCCC1)N1C[C@@H]2N[C@H](C1)C2c1ccc(-c2ccc(F)cc2)cc1` (stereo not given in full), the AC50 was 22.7 µM. Consider `Cc1ccc(-c2nc(CN3CCN(C(=O)Nc4ccc(C)c(Cl)c4)CC3)c(C)o2)cc1`, for which the AC50 is > 39 µM (inactive). As for `CN(C)C(=O)c1ccc(-c2ccc3c(c2)[C@H]2[C@H](CCN2C(=O)C2CCCC2)[C@@H](CO)N3C)cc1`, the half-maximal activity concentration (AC50) is 18.8 µM.

In the case of `Cc1ccc(S(=O)(=O)N2CCC3(CC2)NCCN=C3NCc2ccc(C(F)(F)F)cc2)c(C)c1`, the AC50 was 9.08 µM.

On to `COc1ccc(NC(=O)CN2CCC3(CC2)N=C(c2cccc(Cl)c2)C(=O)N3)cc1`, for which the AC50 was 18.2 µM.

Regarding `O=C(c1ccccc1Cl)N1CCC2(CC1)Nc1cc(F)ccc1-n1cccc12`, the AC50 is > 39 µM (inactive).

With `COc1cc(NC(=O)Nc2ccc(-c3nc(-c4cc(C)ccc4C)co3)cc2)cc(OC)c1`, the AC50 was 9.46 µM.

`O=C(Cc1ccccn1)N1CC(=O)N2[C@H](CO)[C@@H](c3ccc(C#CCC4CCCC4)cc3)[C@H]2C1`: the AC50 is 15.8 µM. On to `Cc1ccc(CNC2=NCCNC23CCN(S(=O)(=O)c2ccc(C)c(C)c2)CC3)cc1`, for which the AC50 is 7.83 µM. The figure for `N#Cc1ccc(-c2ccc(C3[C@@H]4CN(S(=O)(=O)c5ccc(F)cc5)C[C@H]3N4)cc2)cc1` (stereo not given in full) is 12.1 µM and 13.8 µM. On to `COc1ccccc1C(=O)Nc1ccc(-c2nc(-c3ccccc3)co2)cc1`, for which the AC50 was 33.3 µM. Take `COc1ccccc1C1CN(Cc2cccc(O)c2)Cc2ccccc2O1` (stereo not given): the concentration at half-maximal activity (AC50) is 34.4 µM and 27.5 µM. Take `CC(C)n1ncc(NC(=O)Cn2ccc(-c3ccc(C(F)(F)F)cc3)n2)n1`: the AC50 is 24.3 µM. Take `Cc1ccc(S(=O)(=O)N2CCC3(CC2)NCCN=C3NCc2ccc3c(c2)OCO3)cc1C`: the AC50 was 22.4 µM.

Turning to `Cc1ccccc1S(=O)(=O)N1CCC(C(=O)NCCc2csc(-c3ccccc3)n2)CC1`, the AC50 is 25.6 µM. With `CCc1ccccc1-c1cccc(-n2cnnc2)c1`, the AC50 was 19.9 µM. The value for `CN(c1ccc(F)cc1)c1nc(-c2ccc(Cl)cc2)nc2ccccc12` was 13.9 µM; that for `O=C1CCc2cc(NC(=O)c3ccccc3F)ccc2N1` was 29.7 µM; that for `CCCNC(=O)N1C[C@@H]2N[C@H](C1)C2c1ccc(-c2ccc(OC)cc2)cc1` (stereo not given in full) was 17.9 µM and 23.9 µM. For the compound `COc1ccccc1-c1nc(Cn2nnc(-c3nc(-c4cccc(C(F)(F)F)c4)no3)c2C)c(C)o1`, the AC50 is > 20 µM (inactive). As for `Cc1nc(-c2cccc(-c3noc(C(=O)NCCCN4CCC(C)CC4)n3)c2)cs1`, the AC50 was > 39 µM (inactive). As for `CCCCNC(=O)CCC1N=C2c3ccccc3N=C(SCc3cccc(Cl)c3)N2C1=O` (stereo not given), the AC50 is 14.6 µM. `CC(C)Cc1ccc(S(=O)(=O)N2CCC3(CC2)NCCN=C3NCc2ccc(F)cc2)cc1`: the AC50 was 6.29 µM.

Turning to `COc1cccc(-c2ccc3c(c2)[C@@H]2[C@@H](CCN2C(=O)c2ccccc2F)[C@H](CO)N3C)c1`, the AC50 was 14.4 µM and 10.9 µM. Regarding `O=C(NCCCN1CCCC1)C1CCN(Cc2cc3ccccc3n2Cc2ccccc2Cl)CC1`, the AC50 was 25.8 µM. The figure for `Cc1nc(CCNC(=O)[C@H]2CCCN2S(=O)(=O)c2ccccc2)cs1` is 32.3 µM; for `COc1cc(OC)cc(C(=O)Nc2ccc(-c3nc(-c4ccc(C)cc4C)co3)cc2)c1` it is 29.7 µM.

`CS(=O)(=O)N1CCC(C(=O)NCCc2csc(-c3cccs3)n2)CC1`: the AC50 was > 39 µM (inactive). As for `N#C[C@@H]1N[C@H](CO)[C@H]1c1ccc(-c2cccc(F)c2)cc1`, the AC50 was 26.3 µM. The figure for `O=C(CC1N=C2c3ccccc3N=C(SCc3ccc(F)cc3)N2C1=O)NCc1cccs1` (stereo not given) is 35 µM; for `O=C(CC1N=C2c3ccccc3N=C(SCc3cccc(Cl)c3)N2C1=O)NCCc1ccccc1` (stereo not given) it is 19.3 µM; for `CCOc1ccc(N(Cc2nc(-c3ccc(OC)cc3)oc2C)S(=O)(=O)c2cccs2)cc1` it is 4.79 µM.

Regarding `Cc1sc2ncnc(Oc3ccc(OCc4ccccc4)cc3)c2c1C`, the AC50 is 7.63 µM and 8.8 µM. Take `O=C(Cc1cccnc1)N1CC(=O)N2[C@H](CO)[C@H](c3ccc(C#CC4CCCCC4)cc3)[C@@H]2C1`: the AC50 is 17.9 µM. As to `Cc1ccc(-c2nc(Cn3nnc(-c4nc(-c5cccs5)no4)c3C)c(C)o2)cc1`, the AC50 was 3.2 µM. Turning to `COc1ccc(Cl)cc1NC(=O)COc1nc(C)nc2ccccc12`, the AC50 was 24.1 µM. Turning to `COC[C@]12CCC[C@@H]1CN(S(=O)(=O)c1cccc(OC)c1)C2`, the AC50 is 36.2 µM. With `Cc1cc2nc(CN3CCCC(CCc4ccc(F)cc4F)C3)cc(=O)n2[nH]1` (stereo not given), the AC50 was > 20 µM (inactive). Turning to `COc1cccc(-c2nc3c(s2)CN(C(=O)Nc2ccc(C)c(F)c2)CC3)c1`, the AC50 was 13.1 µM. The value for `COc1ccc(CNC(=O)CCC2N=C3c4ccccc4N=C(SCc4cccc(F)c4)N3C2=O)cc1` (stereo not given) was 20.4 µM; that for `COc1ccc(-c2nc(CN(c3cccc(OC)c3)S(=O)(=O)c3ccccc3)c(C)o2)cc1` was 9.75 µM; that for `FC(F)(F)C1CN(c2cc(-c3ccccc3)nc3ccccc23)CCO1` (stereo not given) was 25.1 µM. Take `COc1cccc(CN2C[C@@H]3N[C@H](C2)C3c2ccc(-c3ccccc3C)cc2)c1` (stereo not given in full): the AC50 was 19 µM and 12.1 µM. As to `CCOC(=O)CSC1=Nc2ccccc2C2=NC(CCC(=O)NCc3ccc(OC)cc3)C(=O)N12` (stereo not given), the AC50 is 27.8 µM. Take `O=C(NCCc1csc(-c2ccccc2)n1)[C@H]1CCCN1C(=O)Cc1ccc(Cl)cc1`: the AC50 is > 39 µM (inactive).

For the compound `CCCN(C/C=C/I)C1CCc2cccc(O)c2C1` (stereo not given), the AC50 was 30.9 µM. With `Cc1oc(-c2cccc(Cl)c2)nc1CN(c1ccccc1)S(=O)(=O)c1cccs1`, the AC50 was 10.4 µM. For the compound `O=C(CC1Nc2c3ccccc3nc(=S)n2C1=O)N1CCN(c2ccccc2F)CC1` (stereo not given), the AC50 is 29.7 µM. Consider `Fc1ccccc1CSc1nc(NCc2ccc(Cl)cc2)c2ccccc2n1`, for which the AC50 is 17.4 µM. In the case of `O=C(c1ccc[nH]1)N1CCC2(CC1)COCCN(c1ncccn1)C2`, the AC50 was 7.07 µM. For `COc1ccc(S(=O)(=O)N2CCCCN3[C@H](C2)[C@@H](c2ccc(C#CCC(C)C)cc2)[C@@H]3CO)cc1`, the concentration at half-maximal activity (AC50) is 12.3 µM. For the compound `CC(C)CC#Cc1ccc([C@@H]2[C@H](CO)N3C(=O)CN(C(=O)c4cccc(F)c4)C[C@@H]23)cc1`, the AC50 was 18.2 µM. For the compound `O=C(NCCCN1CCCC1)C1CCN(Cc2cc3ccccc3n2Cc2ccccc2)CC1`, the AC50 is 23 µM. In the case of `CCOc1ccccc1-c1nc(CN(c2cccc(OC)c2)S(=O)(=O)c2ccc(C)cc2)c(C)o1`, the AC50 was 9.59 µM. Consider `CC(C)CC#Cc1ccc([C@@H]2[C@@H](CO)N3C(=O)CN(C(=O)c4cccc(F)c4)C[C@@H]23)cc1`, for which the AC50 is 15 µM and 9.46 µM. As to `CC(C)CCN1Cc2c(C(=O)NC3CCCCC3)ncn2-c2ccccc2S1(=O)=O`, the concentration at half-maximal activity (AC50) was 20.6 µM.

With `Cc1ccccc1-c1nc(CN2CCN(C(=O)NCCc3ccccc3)CC2)c(C)o1`, the AC50 is 17.4 µM.

Regarding `C[C@@H]1CN([C@@H](C)CO)C(=O)c2cccc(NC(=O)NC3CCCCC3)c2O[C@H]1CN(C)Cc1ccc(C(F)(F)F)cc1`, the AC50 is 16 µM. On to `COc1ccc(N(Cc2nc(-c3ccc(OC)c(OC)c3)oc2C)S(=O)(=O)c2ccccc2)cc1`, for which the AC50 is 9.25 µM. On to `COc1ccc(-n2c(C)c([N+](=O)[O-])c3ccc(O)cc32)cc1`, for which the AC50 was 1.41 µM. For the compound `COc1ccccc1-c1ccc([C@@H]2[C@H](CO)N3CCCCN(C(=O)c4cccnc4)C[C@@H]23)cc1`, the AC50 was 17.2 µM. The figure for `Cc1ccc(CNC2=NCCNC23CCN(S(=O)(=O)c2ccc4c(c2)CCCC4)CC3)cc1` is 19.4 µM; for `COc1ccc(S(=O)(=O)N(C)C[C@H]2Oc3c(NC(=O)c4nc5ccccc5s4)cccc3C(=O)N([C@@H](C)CO)C[C@@H]2C)cc1` it is 1.77 µM and 0.196 µM. In the case of `O=C(CC1CCC2(CC1)CCN(c1ncc(F)cn1)CC2)N1CC=CC1`, the AC50 was 19.3 µM. Consider `Cc1ccc(-n2ncc3c(NCc4cccc(Cl)c4)ncnc32)c(C)c1`, for which the half-maximal activity concentration (AC50) was 22.3 µM. As to `COc1cccc(-c2ccc3c(c2)[C@H]2[C@H](CCN2S(=O)(=O)c2ccccc2F)[C@@H](CO)N3)c1`, the AC50 is 25 µM and 6.64 µM. The value for `COc1cccc(-c2nc(C)c(-c3ccc(SCc4ccccc4)nn3)s2)c1` was 12.7 µM; that for `CC(=O)NC1=NN(C(C)=O)C(C)(c2ccccc2)S1` (stereo not given) was 11 µM and 6.03 µM; that for `Cc1cccc(CN2CCC3(CC2)N=C(c2cccc(C)c2)C(=O)N3)c1` was > 20 µM (inactive). In the case of `CC(C)C#Cc1ccc([C@@H]2[C@H](CO)N3C(=O)CN(S(=O)(=O)c4ccccc4)C[C@@H]23)cc1`, the AC50 was > 39 µM (inactive). Take `COc1ccc(-c2nc3c(s2)CN(S(=O)(=O)c2ccc(C)c(C)c2)CC3)cc1`: the AC50 is 20.7 µM. `COc1cc(CN2C[C@@H]3N[C@H](C2)C3c2ccc(-c3ccc(C#N)cc3)cc2)cc(OC)c1` (stereo not given in full): the half-maximal activity concentration (AC50) was 6.02 µM and 7.29 µM and 16.7 µM. Regarding `Cc1ccsc1C(=O)N1CCc2nc(N3CCOCC3)nc(NC(C)C)c2C1`, the AC50 was > 39 µM (inactive).

Regarding `O=C(Cc1ccncc1)N1CCCCN2[C@@H](CO)[C@@H](c3ccc(C#Cc4ccccc4F)cc3)[C@@H]2C1`, the AC50 was 20.9 µM and 12.3 µM. The value for `Cc1ccccc1-c1ccc([C@H]2[C@H](CO)N3C(=O)CN(C(=O)c4ccncc4)C[C@@H]23)cc1` was 21.5 µM; that for `O=C(c1ccc(F)cc1)N1CC(=O)N2[C@H](C1)[C@H](c1ccc(C#CCC3CCCC3)cc1)[C@@H]2CO` was 10.6 µM; that for `Cc1cccc(OCC(=O)N2CCC3(CC2)Nc2ccc(Cl)cc2-n2cccc23)c1` was 8.26 µM and 14.9 µM. With `COc1ccc(-c2nc(CN(c3ccccc3)S(=O)(=O)c3ccccc3)c(C)o2)cc1OC`, the AC50 is 3.77 µM.

As for `COc1ccc(N(Cc2nc(-c3ccccc3OC)oc2C)S(=O)(=O)c2ccc(OC)cc2)cc1`, the concentration at half-maximal activity (AC50) was 17.9 µM. Turning to `O=S(=O)(c1ccccc1)N1CCCCN2[C@@H](CO)[C@@H](c3ccc(C#CC4CCCC4)cc3)[C@@H]2C1`, the AC50 is 17.5 µM and 6.86 µM. Consider `COc1ccc(-c2nc(NCCCN3CCOCC3)c3ccccc3n2)cc1`, for which the AC50 is 16.6 µM.

Take `Cc1ccc(-c2nc(CN3CCN(C(=O)Nc4ccc(C)c(F)c4)CC3)c(C)o2)cc1`: the AC50 was 8.58 µM. As to `O=S(=O)(c1ccc(Cl)s1)N1CCC2(CC1)NCCN=C2NCc1cc(F)cc(F)c1`, the AC50 is 18 µM. The value for `CN(C)CCNC(=O)c1c2c(NCc3cccnc3)ncnc2n2ccccc12` was 32.4 µM; that for `O=C(CCn1c2c(c3ccccc31)CCCC2)N1CCC(c2ccncc2)CC1` was 15.3 µM.
